Assay results as given in patent EP0489933A1, “BILE ALCOHOL AND DRUG CONTAINING THE SAME AS ACTIVE INGREDIENT” (TSUMURA CO., LTD., priority 1990, dated 1992).

How the values were obtained:
[1] = tested on: male mice of ddY line; experiment: Survival time under hypoxia (aeration with 96% nitrogen and 4% oxygen); assay type: in vivo; conditions: 50 mg/kg, i.p., 60 minutes before aeration with 96% nitrogen and 4% oxygen; time to respiratory arrest
Procedure: In this experiment, 5 to 6-week-old male mice of ddY line (10 individuals per one group) were used after fasting treatment for 24 hours.
Each compound obtained in the present invention was administered intraperitoneally. After 60 minutes of the administration, each mouse was transferred separately into a transparent vessel (capacity, 1,000 ml) equipped with an air exit, and the vessel was aerated with a mixed gas consisting of 96% nitrogen and 4% oxygen at an aeration rate of 5 ℓ/min.
All tested mice died within 180 seconds after the commencement of the gas mixture aeration. Terminal respiration was observed several times prior to the respiratory arrest. Survival time of the control group was roughly in the range of from 96 to 111 seconds.

[2] = tested on: erythrocytes; experiment: Erythrocyte deformability (filtration through 5 µm filter) after oral administration; assay type: in vivo, male rats of Wistar line; conditions: 30 mg/kg, p.o.; blood collected 90 minutes after administration; number of filtered erythrocytes
Procedure: (§1) In this experiment, 9-week-old male rats of Wistar line (5 to 6 individuals per one group) were used after rearing them for 1 week with normal feed. After 24 hours of fasting, each test drug was administered orally and, 90 minutes thereafter, blood sample was collected from lower abdominal vena cava of each rat under anesthesia with Nembutal® (1 ml/kg, i.p.). Blood samples obtained in this way were checked for their blood clotting time and erythrocyte deformability.
(§2) Measuring procedures are as follows.
Erythrocyte deformability ... The collected blood is extruded from a syringe with a constant flow of He in a holder equipped with a filter (5 µm). Weight of blood and the number of erythrocytes filtered during a fixed time are measured and the deformability is expressed based on the number of filtered erythrocytes. The results of these measurements are shown respectively in Tables 11 and 12.

[3] = Qualitative solubility; assay type: physicochemical
[4] = Blood plasma clotting time after oral administration; assay type: in vivo, male rats of Wistar line; conditions: 30 mg/kg, p.o.; blood collected 90 minutes after administration; calcium chloride, 37°C
Procedure: as §1, §2
Blood clotting time ... Collected blood sample is centrifuged at 3,500 rpm for 10 minutes to obtain blood plasma. The blood plasma is pre-incubated for 1 minute in a water bath controlled at 37°C, mixed with calcium chloride and then shaken at 20 second intervals to measure a time required for its clotting.

Compound | Survival Time ±S.E. [1] | Erythrocyte Deformation: Erythrocyte counts ±S.E. [2] | solubility in H₂O [3] | Plasma Clotting Time ± S.E. [4]
C[C@H](CC[C@@H](O)C(CO)CO)[C@H]1CC[C@H]2[C@@H]3[C@H](O)C[C@@H]4C[C@H](O)CC[C@]4(C)[C@H]3C[C@H](O)[C@]12C [Illustrative Example 1, (24R)-(+)-3α,7α,12α,24,26,27-hexahydroxy-5β-cholestane] | 155.4 ± 13.2 s | 3.72 ± 0.55 × 10⁷ |  | 
C[C@H](CC[C@H]1OC[C@H]1CO)[C@H]1CC[C@H]2[C@@H]3[C@H](O)C[C@@H]4C[C@H](O)CC[C@]4(C)[C@H]3C[C@H](O)[C@]12C [Example 4, (24R)-(25R)-(+)-24,26-epoxy-5β-cholestane-3α,7α,12α,27-tetrol] | 115.5 ± 3.88 s | 3.97 ± 0.39 × 10⁷ | insol in H₂O | 
CC(C)C(O)CC[C@@H](C)[C@H]1CC[C@H]2[C@@H]3[C@H](O)C[C@@H]4C[C@H](O)CC[C@]4(C)[C@H]3C[C@H](O)[C@]12C (stereo partly drawn) [Illustrative Example 5, 3α,7α,12α,24-tetrahydroxy-5β-cholestane] | 110.5 ± 6.71 s | 3.51 ± 0.65 × 10⁷ |  | 
CC(CCC1OCC1CO)C1CCC2C3C(O)CC4CC(O)CCC4(C)C3CC(O)C12C [Example 3, (24R)-(25S)-(+)-24,26-epoxy-5β-cholestane-3α,7α,12α,27-tetrol] | 113.2 ± 5.28 s | 3.55 ± 0.66 × 10⁷ |  | 195 ± 1.9 s
C[C@H](CCCC(CO)CO)[C@H]1CC[C@H]2[C@@H]3[C@H](O)C[C@@H]4C[C@H](O)CC[C@]4(C)[C@H]3C[C@H](O)[C@]12C [Example 6, 3α,7α,12α,26,27-pentahydroxy-5β-cholestane] | 127.5 ± 9.26 s | 3.81 ± 0.44 × 10⁷ |  | 
C[C@H](CC[C@@H](O)CCO)[C@H]1CC[C@H]2[C@@H]3[C@H](O)C[C@@H]4C[C@H](O)CC[C@]4(C)[C@H]3C[C@H](O)[C@]12C [Illustrative Example 2, 27-nor-(24R)-(+)-3α,7α,12α,24,26-pentahydroxy-5β-cholestane] | 116.3 ± 4.86 s | 3.62 ± 0.46 × 10⁷ |  | 201 ± 4.1 s
C[C@H](CC[C@H](O)C(CO)CO)[C@H]1CC[C@H]2[C@@H]3[C@H](O)C[C@@H]4C[C@H](O)CC[C@]4(C)[C@H]3C[C@H](O)[C@]12C [Example 8, (24S)-3α,7α,12α,24,26,27-hexahydroxy-5β-cholestane] | 144.8 ± 10.27 s | 4.53 ± 0.82 × 10⁷ |  | 
C[C@H](CCCC(CO)CO)[C@H]1CC[C@H]2[C@@H]3[C@H](O)C[C@H]4C[C@H](O)CC[C@]4(C)[C@H]3C[C@H](O)[C@]12C [Example 7, 3α,7α,12α,26,27-pentahydroxy-5α-cholestane] | 121.5 ± 6.00 s | 4.02 ± 0.37 × 10⁷ |  | 
C[C@H](CC[C@@H](O)[C@@H](C)CO)[C@H]1CC[C@H]2[C@@H]3[C@H](O)C[C@@H]4C[C@H](O)CC[C@]4(C)[C@H]3C[C@H](O)[C@]12C [Example 11, (24R)-(25S)-3α,7α,12α,24,26-pentahydroxy-5β-cholestane] | 121.1 ± 2.60 s | 3.95 ± 0.64 × 10⁷ |  | 
C[C@H](CCCC(C)(O)CO)[C@H]1CC[C@H]2[C@@H]3[C@H](O)C[C@@H]4C[C@H](O)CC[C@]4(C)[C@H]3C[C@H](O)[C@]12C (stereo partly drawn) [Illustrative Example 4, 5β-cholestane-3α,7α,12α,25,26-pentol] | 118.0 ± 5.11 s | 3.93 ± 0.38 × 10⁷ |  | 
C[C@H](CC[C@H](O)[C@@H](C)CO)[C@H]1CC[C@H]2[C@@H]3[C@H](O)C[C@@H]4C[C@H](O)CC[C@]4(C)[C@H]3C[C@H](O)[C@]12C [Example 9, (24S)-(25S)-3α,7α,12α,24,26-pentahydroxy-5β-cholestane] | 126.5 ± 5.21 s | 4.11 ± 0.44 × 10⁷ |  | 
C[C@H](CO)[C@H](O)CC[C@@H](C)[C@H]1CC[C@H]2[C@@H]3[C@H](O)C[C@@H]4C[C@H](O)CC[C@]4(C)[C@H]3C[C@H](O)[C@]12C [Example 12, (24R)-(25R)-3α,7α,12α,24,26-pentahydroxy-5β-cholestane] | 118.1 ± 3.33 s | 3.80 ± 0.78 × 10⁷ |  | 
C[C@H](CCCO)[C@H]1CC[C@H]2[C@@H]3[C@H](O)C[C@@H]4C[C@H](O)CC[C@]4(C)[C@H]3C[C@H](O)[C@]12C [Illustrative Example 6, 3α,7α,12α,24-tetrahydroxy-5β-cholan] | 115.4 ± 2.24 s | 3.71 ± 0.48 × 10⁷ |  | 
C[C@H](CC[C@H](O)CCO)[C@H]1CC[C@H]2[C@@H]3[C@H](O)C[C@@H]4C[C@H](O)CC[C@]4(C)[C@H]3C[C@H](O)[C@]12C [Illustrative Example 3, 27-nor-(24S)-(+)-3α,7α,12α,24,26-pentahydroxy-5β-cholestane] | 109.2 ± 4.77 s | 3.81 ± 0.23 × 10⁷ |  | 213 ± 5.5 s
C[C@H](CC[C@@H](O)C1COC1)[C@H]1CC[C@H]2[C@@H]3[C@H](O)C[C@@H]4C[C@H](O)CC[C@]4(C)[C@H]3C[C@H](O)[C@]12C [Example 5, (24R)-(+)-26,27-epoxy-5β-cholestane-3α,7α,12α,24-tetrol] | 110.0 ± 5.10 s | 4.10 ± 0.55 × 10⁷ | insol in H₂O | 
C[C@H](CC[C@H](O)[C@H](C)CO)[C@H]1CC[C@H]2[C@@H]3[C@H](O)C[C@@H]4C[C@H](O)CC[C@]4(C)[C@H]3C[C@H](O)[C@]12C [Example 10, (24S)-(25R) 3α,7α,12α,24,26-pentahydroxy-5β-cholestane] | 125.1 ± 3.89 s | 4.41 ± 0.54 × 10⁷ |  | 
